Assay results from PMC10447463, “Data-mining unveils structure–property–activity correlation of viral infectivity enhancing self-assembling peptides” (Nature Communications, 2023).
Where two headings read alike, the source gives them in different places.

How the values were obtained:
[1] = β-sheet content by ATR-FT-IR; format: physicochemical; settings: for b -sheet / %: Fig. S7 panel A, β-sheet content by ATR-FT-IR
Summary of the method: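 β-sheet content came from ATR FT-IR spectra of lyophilized 1 mg/mL nanofibril solution (64 scans, 2 cm^-1 resolution). Conversion was measured by separating free monomer with a 3 kDa cutoff filter, then comparing fluorescamine fluorescence (ex 365/em 470 nm, 20 min RT) of filtrate versus unfiltered sample, in triplicate.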

[2] = format: physicochemical; settings: for ThT Cat. / ThT-Fluorescence (categorical): ThT-active if fluorescence at least twice the control
Summary of the method: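 Fibrils (1 mg/mL solution) were mixed with 50 µM ThT in PBS for 15 min at RT, and fluorescence was read at λex 440/λem 488 nm against a PBS blank, as a triplicate mean ± SD. Zeta potential came from electrophoretic mobility (Smoluchowski) after 1 d aggregation at 1 mg/mL in PBS pH 7.4, diluted into 1 mM KCl.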

[3] = test system: HIV-1 infection of TZM-bl cells; experiment: HIV-1 infectivity enhancement assay, β-galactosidase luminescence; format: cell-based; settings: for Rel-EFC: infection relative to EF-C (QCKIKQIINMWQ = 1); for Log10 Infection Rel EFC: log10 of infection relative to EF-C; for Log Infectivity: Log10 infection relative to EF-C, TZM-bl cells, asymmetric std dev errors; for Log10 Infection Rel EF-C: HIV-1 infection of TZM-bl cells; for Log10 of Rel to EFC (Feb2021): Log10 of infection relative to EF-C; for Abs. Inf.: absolute infection signal, HIV-1 on TZM-bl cells, β-galactosidase luminescence; for Log10 Inf. rel. to EF-C: log10 of HIV-1 infection of TZM-bl cells relative to EF-C (EF-C = 0)
[4] = Fig. S7 panel A (plotted against β-sheet content)
[5] = Fig. S7 panel B (plotted against CR), rounded to two decimals
[6] = Log10 of infection rate relative to EF-C, Figure 3A source data
[7] = infection rate relative to EF-C, log10, data of Figure 2D
[8] = infection rate relative to EF-C, log10, source data of Figure 2C
[9] = ThT fluorescence category, 1 if Rel. ThT >2

Substance | b -sheet / % [1] [%] | Tht category (> 2 to blank = +) ([2]; Fig S10 panel D) | ThT Cat. ([2]; Fig S10 panel E) | ThT Cat, ([2]; ThT category, 1 if Rel. ThT >2) | ThT Cat. ([2]; ThT category, 1 if Rel. ThT >2) | ThT Cat. / ThT-Fluorescence (categorical) [2] | Rel-EFC ([3]; 1.3 µM peptide) | Log10 Infection Rel EFC ([3]; 1.3 µM peptide) | Log Infectivity [3, 4] | Log Infectivity [3, 5] | Log10 Infection Rel EF-C [3, 6] | Log10 Infection Rel EF-C [3, 7] | Log10 Infection Rel EF-C [3, 8] | Log10 of Rel to EFC (Feb2021) ([3]; all peptides of FigS16) | Abs. Inf. [3] | Log10 Inf. rel. to EF-C [3] | Tht category (> 2 to blank = +) ([2]; FigS12 panel A) | ThT Cat, ([2]; FigS12 panel B) | ThT Cat. [2, 9] | also measured
HIHIQIC | 48.25 | 1 (ThT. Cat is 1, if Rel. ThT >2) | 1 (ThT. Cat is 1, if Rel. ThT >2) | 1 (ThT. Cat is 1, if Rel. ThT >2) | 1 (ThT. Cat is 1, if Rel. ThT >2) | 1 (ThT. Cat is 1, if Rel. ThT >2) | 0,27 | -0,57 | -0.5672 | -0.57 | -0.57 | -0.5672 | -0.5672 | -0.57 | 4621 | -0.5672 |  |  |  | 
HLHLPLL | 49.19 | 0 (ThT-inactive (N-Fold <2)) | 0 (ThT-inactive (N-Fold <2)) | 0 (ThT-inactive (N-Fold <2)) | 0 (ThT-inactive (N-Fold <2)) | 0 (ThT-inactive (N-Fold <2)) | 0,01 | -2 | -1.9991 | -2 | -2 | -1.9991 | -1.9991 |  | 133.3 | -1.9991 | 0 (ThT-inactive (N-Fold <2)) | 0 (ThT-inactive (N-Fold <2)) |  | 
HRRHFRHKITKKK | 45.34 | 0 (ThT-inactive (N-Fold <2)) | 0 (ThT-inactive (N-Fold <2)) | 0 (ThT-inactive (N-Fold <2)) | 0 (ThT-inactive (N-Fold <2)) | 0 (ThT-inactive (N-Fold <2)) | 0,01 | -1,87 | -1.868 | -1.87 | -1.87 | -1.868 | -1.868 |  | 150 | -1.868 | 0 (ThT-inactive (N-Fold <2)) | 0 (ThT-inactive (N-Fold <2)) |  | 
KAKAQA | 40.34 | 0 (ThT-inactive (N-Fold <2)) | 0 (ThT-inactive (N-Fold <2)) | 0 (ThT-inactive (N-Fold <2)) |  | 0 (ThT-inactive (N-Fold <2)) | 0,02 | -1,74 | -1.743 | -1.74 | -1.74 | -1.743 | -1.743 |  |  | -1.743 | 0 (ThT-inactive (N-Fold <2)) | 0 (ThT-inactive (N-Fold <2)) | 0 (ThT-inactive (N-Fold <2)) | Abs. Infection at 0.26 µM ([3]; peptide 0.26 µM, mean of n = 3, Figure 4A): 100; Infect 1 0.26 µM ([3]; peptide 0.26 µM, replicate 1, absolute infection signal, Figure 4A): -23.33; Infect 2 0.26 µM ([3]; peptide 0.26 µM, replicate 2, absolute infection signal, Figure 4A): 166.67; Infect 3 0.26 µM ([3]; peptide 0.26 µM, replicate 3, absolute infection signal, Figure 4A): 156.67; Abs. Infection at 1.3 µM ([3]; peptide 1.3 µM, mean of n = 3, Figure 4A): 146.7; Infect 1 .3 µM ([3]; peptide 1.3 µM, replicate 1, absolute infection signal, Figure 4A): 126.67; Infect 2 1.3µM ([3]; peptide 1.3 µM, replicate 2, absolute infection signal, Figure 4A): 46.67; Infect 3 1.3 µM ([3]; peptide 1.3 µM, replicate 3, absolute infection signal, Figure 4A): 266.67
KAKAQANMWQ | 42.81 | 0 (ThT-inactive (N-Fold <2)) | 0 (ThT-inactive (N-Fold <2)) | 0 (ThT-inactive (N-Fold <2)) | 0 (ThT-inactive (N-Fold <2)) | 0 (ThT-inactive (N-Fold <2)) | 0,01 | -2,15 | -2.146 | -2.15 | -2.15 | -2.146 | -2.146 |  | 193.3 | -2.146 | 0 (ThT-inactive (N-Fold <2)) | 0 (ThT-inactive (N-Fold <2)) |  | ß-sheet / % ([1]; ATR-FT-IR of lyophilised 1 mg/mL PNF solution, peak integral ratio 1625-1635 cm-1, measured once): 43%; Rel. ThT ([2]; n-fold ThT fluorescence vs control (PBS, 10% DMSO), 4 µL 1 mg/mL fibrils + 20 µL 50 µM ThT, 15 min RT, ex 440 / em 488 nm, triplicate): 1; Inf. rel. EF-C ([3]; HIV-1 infection relative to EF-C, Fig 23 plot, panels A and B, mean of 3 values): 0.008469; Inf. rel. EF-C ([3]; HIV-1 infection relative to EF-C, Fig 23 plot, single data point, replicate 1): 0.01122; Inf. rel. EF-C ([3]; HIV-1 infection relative to EF-C, Fig 23 plot, single data point, replicate 2): 0.003015; Inf. rel. EF-C ([3]; HIV-1 infection relative to EF-C, Fig 23 plot, single data point, replicate 3): 0.01117; Abs. Inf. / RLU s-1 ([3]; absolute infection rate, peptide 1.3 µM on cells, virus preincubated 10 min with fibrils, read 3 days post infection, mean of triplicate): 193 RLU s-1; Inf. rel. EF-C ([3]; n-fold infection vs virus only, relative to that of EF-C, 1.3 µM peptide): 0.01
KAKQAANMWQ | 10.94 | 0 (ThT-inactive (N-Fold <2)) |  | 0 (ThT-inactive (N-Fold <2)) | 0 (ThT-inactive (N-Fold <2)) | 0 (ThT-inactive (N-Fold <2)) | 0,03 | -1,51 | -1.514 |  | -1.51 | -1.514 | -1.514 |  | 343.3 | -1.514 | 0 (ThT-inactive (N-Fold <2)) | 0 (ThT-inactive (N-Fold <2)) |  | 
KFKFQF | 46 | 0 (ThT-inactive (N-Fold <2)) | 0 (ThT-inactive (N-Fold <2)) | 0 (ThT-inactive (N-Fold <2)) |  | 0 (ThT-inactive (N-Fold <2)) | 0,06 | -1,21 | -1.213 | -1.21 | -1.21 | -1.213 | -1.213 |  |  | -1.213 | 0 (ThT-inactive (N-Fold <2)) | 0 (ThT-inactive (N-Fold <2)) | 0 (ThT-inactive (N-Fold <2)) | 
KFKFQFNMWQ | 43.15 | 1 (ThT. Cat is 1, if Rel. ThT >2) | 1 (ThT. Cat is 1, if Rel. ThT >2) | 1 (ThT. Cat is 1, if Rel. ThT >2) | 1 (ThT. Cat is 1, if Rel. ThT >2) | 1 (ThT. Cat is 1, if Rel. ThT >2) | 0,76 | -0,12 | -0.1164 | -0.12 | -0.12 | -0.1164 | -0.1164 | -0.12 | 20676.66667 | -0.1164 |  |  |  | 
KFKQFFNMWQ | 32.75 | 0 (ThT-inactive (N-Fold <2)) |  | 0 (ThT-inactive (N-Fold <2)) | 0 (ThT-inactive (N-Fold <2)) | 0 (ThT-inactive (N-Fold <2)) | 0,09 | -1,05 | -1.0494 |  | -1.05 | -1.0494 | -1.0494 |  | 1000 | -1.0494 | 0 (ThT-inactive (N-Fold <2)) | 0 (ThT-inactive (N-Fold <2)) |  | 
KIKIKIKIYYYY | 56.7 | 0 (ThT-inactive (N-Fold <2)) |  | 0 (ThT-inactive (N-Fold <2)) |  | 0 (ThT-inactive (N-Fold <2)) | 1,38 | 0,14 | 0.1402 |  | 0.14 | 0.1402 | 0.1402 | 0.14 |  | 0.1402 |  |  | 0 (ThT-inactive (N-Fold <2)) | beta sheet ([1]; peptides with TEM 2cat 0): 57; Log10 of Rel to EFC (Feb2021) ([3]; second listing, peptides with TEM 2cat 0): 0.14
